Reference: US20250382298A1, “NITROGEN-CONTAINING COMPOUND AND USE THEREOF” (SUZHOU GENHOUSE BIO CO., LTD., priority 2022, published 2025)

Key:
[1] = tested on: HT-29 cells; assay: Detection of cell proliferation activity by CCK8 method (HT-29); format: cell-based, human; details: CCK8, 96 h
Procedure, shortened: (§1)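 Cells seeded at 1500/well (BT-549, 1640 medium) or 2000/well (HT-29, HCT-116, McCoy's 5A), treated next day with 9-point 1:5 dilutions from 10 μM final, triplicate, for 96 h. CCK8 read at 450 nm after 2 h at 37 °C; inhibition versus DMSO, IC50 by non-linear regression.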

[2] = tested on: BT-549 cells; assay: Detection of cell proliferation activity by CCK8 method (BT-549); format: cell-based; details: CCK8, 96 h
Procedure, shortened: as §1

[3] = target: cytochrome oxidase P450 1A2 (Homo sapiens (Human), UniProt P05177); assay: Inhibition of cytochrome oxidase P450 1A2; format: in vitro ADME; details: liver microsomes, CYP1A2
[4] = tested on: HCT-116 cells; assay: Detection of cell proliferation activity by CCK8 method (HCT-116); format: cell-based; details: CCK8, 96 h
Procedure, shortened: as §1

[5] = tested on: HCT-116 cells; assay: Mitotic index analysis, pH3 expression in HCT-116 cells; format: cell-based; details: 24 h treatment
Procedure, shortened: (§2)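 HCT-116 or HT-29 cells treated 24 h with 9-point 3-fold dilutions from 10 μM, then fixed and immunostained for phospho-histone H3 with DRAQ5 counterstain. Near-infrared fluorescence read at 700/800 nm; pH3 expressed as % of DMSO control and EC50 fitted.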

[6] = tested on: HT-29 cells; assay: Mitotic index analysis, pH3 expression in HT-29 cells; format: cell-based, human; details: 24 h treatment
Procedure, shortened: as §2

Chain of cytochrome oxidase P450 1A2 (P05177 whole entry): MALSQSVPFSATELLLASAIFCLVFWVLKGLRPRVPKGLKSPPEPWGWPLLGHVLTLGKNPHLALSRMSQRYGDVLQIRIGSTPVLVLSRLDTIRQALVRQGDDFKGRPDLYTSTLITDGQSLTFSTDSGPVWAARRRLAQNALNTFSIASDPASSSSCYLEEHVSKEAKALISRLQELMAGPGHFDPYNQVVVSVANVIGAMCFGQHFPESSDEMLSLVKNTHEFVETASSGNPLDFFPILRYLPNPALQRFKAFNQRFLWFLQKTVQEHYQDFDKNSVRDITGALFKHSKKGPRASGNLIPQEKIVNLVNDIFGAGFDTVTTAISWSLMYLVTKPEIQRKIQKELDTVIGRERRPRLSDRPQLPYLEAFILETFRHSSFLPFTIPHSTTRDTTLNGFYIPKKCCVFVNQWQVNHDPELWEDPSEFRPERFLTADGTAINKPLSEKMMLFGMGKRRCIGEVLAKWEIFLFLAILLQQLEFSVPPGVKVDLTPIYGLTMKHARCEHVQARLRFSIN

Compound | IC50 ([1]; Homo sapiens) [nM] | IC50 ([2]; Homo sapiens) [nM] | IC50 [3] [nM] | IC50 ([4]; Homo sapiens) [nM] | EC50 ([5]; Homo sapiens) [nM] | EC50 ([6]; Homo sapiens) [nM] | IC50 [1] [nM] | IC50 [2] [nM] | IC50 [4] [nM] | EC50 [5] [nM] | EC50 [6] [nM]
Cc1cc(NC(=O)c2ccc(NS(=O)(=O)CCO)cc2N2CC3CCC(C3)C2)nc(N2CCC(F)(F)CC2)n1 [Compound 3] | 115 | 145 | – | > 10000 | > 10000 | 495 | – | – | – | – | –
CS(=O)(=O)Nc1ccc(C(=O)Nc2cn3ccnc3c(N3CCC(F)(F)CC3)n2)c(N2CCC3(CC2)CC3)c1 [Compound 10] | 61 | 52 | – | > 10000 | > 10000 | 183 | – | – | – | – | –
O=C(Nc1cn2ncnc2c(N2CCC(F)(F)CC2)n1)c1ccc(NS(=O)(=O)CCO)cc1N1CCC2(CC1)CC2 [Compound 23] | 22.5 | 22.6 | – | > 10000 | > 10000 | 9.8 | – | – | – | – | –
O=C(Nc1cn2cnnc2c(N2CCC(F)(F)CC2)n1)c1ccc(NS(=O)(=O)CCO)cc1N1CCC2(CC1)CC2 [Compound 24] | – | – | – | – | – | – | 142 | 52.8 | > 10000 | > 10000 | 65.6
O=C(Nc1cn2ccnc2c(N2CCC(F)(F)CC2)n1)c1ccc(NS(=O)(=O)CCO)cc1N1CC2CCC(C2)C1 [Compound 17] | 27 | 33 | – | > 10000 | > 10000 | 57 | – | – | – | – | –
CS(=O)(=O)Nc1ccc(C(=O)Nc2cn3ccnc3c(N3CCC(F)(F)CC3)n2)c(N2CC3CCC(C3)C2)c1 [Compound 19] | 44 | 69.6 | > 10000 | > 10000 | > 10000 | 34 | – | – | – | – | –

Now from value to compound, other results behind:

IC50 ([1]; Homo sapiens) [nM] | IC50 ([2]; Homo sapiens) [nM] | IC50 [3] [nM] | IC50 ([4]; Homo sapiens) [nM] | EC50 ([5]; Homo sapiens) [nM] | EC50 ([6]; Homo sapiens) [nM] | Compound | IC50 [1] [nM] | IC50 [2] [nM] | IC50 [4] [nM] | EC50 [5] [nM] | EC50 [6] [nM]
19 | 7.2 | > 10000 | > 10000 | > 10000 | 6.4 | O=C(Nc1cn2ccnc2c(N2CCC(F)(F)CC2)n1)c1ccc(NS(=O)(=O)CCO)cc1N1CCC2(CC1)CC2 [Compound 8] | – | – | – | – | –
107 | 86 | – | > 10000 | > 10000 | 82 | O=C(Nc1cc2ccsc2c(N2CCC(F)(F)CC2)n1)c1ccc(NS(=O)(=O)CCO)cc1N1CCC2(CC1)CC2 [Compound 15] | – | – | – | – | –
10.5 | 18.9 | > 10000 | > 10000 | > 10000 | 6.4 | CS(=O)(=O)Nc1ccc(C(=O)Nc2cc3cc[nH]c3c(N3CCC(F)(F)CC3)n2)c(N2CCC3(CC2)CC3)c1 [Compound 47] | – | – | – | – | –
144 | 146 | > 10000 | > 10000 | > 10000 | 175 | O=C(Nc1cc2ccccc2c(N2CCC(F)(F)CC2)n1)c1ccc(NS(=O)(=O)CCO)cc1N1CCC2(CC1)CC2 [Compound 6] | – | – | – | – | –
28.8 | 33.3 | > 10000 | > 10000 | > 10000 | 14.5 | O=C(Nc1cn2c(F)cnc2c(N2CCC(F)(F)CC2)n1)c1ccc(NS(=O)(=O)CCO)cc1N1CCC2(CC1)CC2 [Compound 34] | – | – | – | – | –
30 | 25 | – | > 10000 | > 10000 | 22 | O=C(Nc1cc2c(c(N3CCC(F)(F)CC3)n1)COC2)c1ccc(NS(=O)(=O)CCO)cc1N1CCC2(CC1)CC2 [Compound 14] | – | – | – | – | –
5.1 | 8.2 | > 10000 | > 10000 | > 10000 | 6 | O=C(Nc1cc2cccnc2c(N2CCC(F)(F)CC2)n1)c1ccc(NS(=O)(=O)CCO)cc1N1CCC2(CC1)CC2 [Compound 21] | – | – | – | – | –
20.6 | 22.1 | – | > 10000 | > 10000 | 8.9 | O=C(Nc1cc2cc[nH]c2c(N2CCC(F)(F)CC2)n1)c1ccc(NS(=O)(=O)CCO)cc1N1CCC2(CC1)CC2 [Compound 22] | – | – | – | – | –
